The test system of series [1] is Human alphaherpesvirus 1. The experiment in a line: Antiviral activity against HSV1 in Vero SC16 cells by capture hybrid method. The following applies: Human alphaherpesvirus 1, Vero. Format: functional, organism-based.
The nature of series [2]: Cytotoxicity against Vero SC16 cells. In kind it is cell-based. The following applies: chlorocebus sabaeus.
The nature of series [3]: Therapeutic index, ratio of CC50 for Vero SC16 cells to EC50 for HSV1. In kind it is cell-based. The following applies: monkey, read-out: Ratio CC50/EC50.

Structures are written as SMILES. Where only a bound is given, the exact number is not on record here.

A word on the EC50: it is the concentration giving half of the maximal effect. A lower EC50 goes with higher potency in that assay. What is called CC50 is the concentration at which the toxic effect on the cells reaches its halfway point.

As for `Fc1ccc(-c2nn3c(NC4CCCC4)cccc3c2-c2ccco2)cc1`, in series [1], the concentration for a half-maximal effect (EC50) was over 10 µM.
In series [1], `Fc1ccc(-c2nn3c(NC4CCCC4)cccc3c2-c2cccnc2NC2CCCC2)cc1` yielded an EC50 of over 40 µM.
In series [2], `Nc1n[nH]cc1-c1c(-c2ccc(F)cc2)nn2c(NC3CCCC3)cccc12` displayed a CC50 of 20 µM. Also, the selectivity ratio in series [3] was 4. Besides, the EC50 in series [1] was found to be 4.9 µM.
`Fc1ccc(-c2nn3c(NC4CCCC4)cccc3c2-c2ccnc(F)c2)cc1` had an EC50 in series [1] of over 40 µM.
With `Nc1nc(-c2c(-c3ccc(F)cc3)nn3c(NC4CCCC4)cccc23)c[nH]1`, in series [1], the EC50 is over 10 µM.
Regarding `Fc1ccc(-c2nn3c(NC4CCCC4)cccc3c2-c2ccno2)cc1`, the EC50 in series [1] is over 10 µM.
`Nc1cccc(-c2c(-c3ccc(F)cc3)nn3c(NC4CCCC4)cccc23)c1`: the EC50 in series [1] is over 10 µM.
As for `Fc1ccc(-c2nn3c(NC4CCCC4)cccc3c2-c2ccsc2)cc1`, the EC50 in series [1] was over 10 µM.
In series [2], `Fc1ccc(-c2nn3c(NC4CCCC4)cccc3c2-c2cc[nH]n2)cc1` gave a CC50 of 14 µM. Also, in series [3], the selectivity ratio stood at 6. This compound registered an EC50 in series [1] of 2.5 µM.
`[N-]=[N+]=Nc1cc(-c2c(-c3ccc(F)cc3)nn3c(NC4CCCC4)cccc23)ccn1` registered an EC50 in series [1] of over 40 µM.
`Fc1ccc(-c2nn3c(NC4CCCC4)cccc3c2-c2cn[nH]c2)cc1` came in with a CC50 in series [2] of 10 µM. The selectivity ratio in series [3] was 2. Also, the response in series [1] was half-maximal at 4.7 µM (EC50).
Turning to `Fc1ccc(-c2nn3c(NC4CCCC4)cccc3c2-c2c[nH]c(NC3CCCC3)n2)cc1`, the midpoint of cytotoxicity in series [2], the CC50, lay at 40 µM. In series [3], the selectivity ratio amounted to 5. Further, in series [1], the EC50 was 7.9 µM.
Regarding `Fc1ccc(-c2nn3c(NC4CCCC4)cccc3c2-c2ccc(NC3CCCC3)nc2)cc1`, the EC50 in series [1] is over 40 µM.
`Fc1ccc(-c2nn3c(NC4CCCC4)cccc3c2-c2ccc3[nH]ccc3c2)cc1` came in with a cytotoxic concentration (CC50) in series [2] of 20 µM. Further, the selectivity ratio in series [3] came to 5. In addition, in series [1], the EC50 amounted to 3.9 µM.
`Fc1ccc(-c2nn3c(NC4CCCC4)cccc3c2-c2ccnc(NC3CCCC3)c2)cc1` registered a CC50 in series [2] of over 40 µM. Also, the selectivity ratio in series [3] was over 108. This compound had an EC50 in series [1] of 0.37 µM.
`Cc1nc(-c2c(-c3ccc(F)cc3)nn3c(NC4CCCC4)cccc23)co1` showed an EC50 in series [1] of over 40 µM.
`Fc1ccc(-c2nn3c(NC4CCCC4)cccc3c2-c2ccnc(NC3CCCC3)n2)cc1` returned a CC50 in series [2] of over 160 µM. For the same compound, the selectivity ratio in series [3] is over 615. Also, in series [1], a half-maximal response (EC50) required 0.26 µM.
For the compound `Fc1ccc(-c2nn3c(NC4CCCC4)cccc3c2-c2ccc(F)nc2)cc1`, the EC50 in series [1] is over 40 µM.
The compound `Fc1ccc(-c2nn3c(NC4CCCC4)cccc3c2-c2cc(NC3CCCC3)ncn2)cc1` yielded a CC50 in series [2] of over 40 µM. In series [3], the selectivity ratio was over 46. The compound also registered an EC50 in series [1] of 0.85 µM.
`Nc1nccc(-c2c(-c3ccc(F)cc3)nn3c(NC4CCCC4)cccc23)n1` yielded a half-maximal cytotoxic concentration (CC50) in series [2] of 46 µM. Moreover, in series [3], the selectivity ratio amounted to 11. This compound also returned an EC50 in series [1] of 4.1 µM.
Take `Nc1nc(-c2c(-c3ccc(F)cc3)nn3c(NC4CCCC4)cccc23)cs1`: it took 8.6 µM to reach a half-maximal effect in series [1] (EC50).
With `Fc1ccc(-c2nn3c(NC4CCCC4)cccc3c2-c2ccnnc2)cc1`, the EC50 in series [1] was over 10 µM.
With `Fc1ccc(-c2nn3c(NC4CCCC4)cccc3c2-c2cccnc2)cc1`, the CC50 in series [2] was over 40 µM. Further, the selectivity ratio in series [3] is over 11. The compound also showed an EC50 in series [1] of 3.4 µM.
Compound `NNc1cc(-c2c(-c3ccc(F)cc3)nn3c(NC4CCCC4)cccc23)ccn1` came in with a CC50 in series [2] of 40 µM. The selectivity ratio in series [3] was 7. Besides, in series [1], the concentration for a half-maximal effect (EC50) was found to be 5.7 µM.
In turn, `Fc1ccc(-c2nn3c(NC4CCCC4)cccc3c2-c2ccoc2)cc1` showed an EC50 in series [1] of over 10 µM.

Source of the values: ChEMBL document CHEMBL1139190, “Pyrazolo[1,5-a]pyridine antiherpetics: effects of the C3 substituent on antiviral activity” (Bioorg Med Chem Lett, 2007).
